According to ChEMBL document CHEMBL3885861, “Open TG-GATES”:

Organism: Rattus norvegicus
Test: Open TG-GATES - Regimen: Single
Format: toxicity, organism-based, Sprague-Dawley
Set-up: regimen Single, gender Male, age 6 weeks
Conditions: in vivo, po, 300 mg/kg, route gavage, dose level High; for APTT / Bas / Eos / Fbg / Hb / Ht / Lym / MCH / MCHC / MCV / Mono / Neu / PT / Plat / RBC / Ret / WBC: tissue Blood; for KIDNEY_L / KIDNEY_R / KIDNEY_TOTAL: tissue Kidney; for LIVER: tissue Liver; for A/G / ALP / ALT / AST / BUN / CRE / Ca / Cl / DBIL / GLC / IP / K / LDH / Na / PL / RALB / TBIL / TC / TG / TP / gamma-GTP: tissue Plasma

For `NC(=O)N/N=C/c1ccc([N+](=O)[O-])o1` [NITROFURAZONE], the TERMINAL_BW (3 h) was 181.2 g, the APTT (3 h) was 16.7 s and the Bas (3 h) was 0%. It also gave an Eos (3 h) of 0.6%, a Fbg (3 h) of 230.6 mg/dL and a Hb (3 h) of 12.3 g/dL. It also gave a Ht (3 h) of 38.2%, a Lym (3 h) of 70.4% and an MCH (3 h) of 21.7 pg. The MCHC (3 h) was 32.3%, the MCV (3 h) was 67 fL and the Mono (3 h) was 4.6%. The Neu (3 h) was 23.6%, the PT (3 h) was 14.9 s and the Plat (3 h) was 114.6 x10_4/uL. It also gave an RBC (3 h) of 569.8 x10_4/ul, a Ret (3 h) of 10.8% and a WBC (3 h) of 73.1 x10_2/uL. It also gave a KIDNEY_L (3 h) of 0.8 g, a KIDNEY_R (3 h) of 0.8 g and a KIDNEY_TOTAL (3 h) of 1.6 g. It also gave an LIVER (3 h) of 7.5 g, an A/G (3 h) of 0.9 and an ALP (3 h) of 1634 IU/L. For the same molecule, the ALT (3 h) was 47 IU/L, the AST (3 h) was 81.6 IU/L and the BUN (3 h) was 11.8 mg/dL. It also gave a CRE (3 h) of 0.2 mg/dL, a Ca (3 h) of 11.1 mg/dL and a Cl (3 h) of 105.2 meq/L. The DBIL (3 h) was 0.002 mg/dL, the GLC (3 h) was 181.6 mg/dL and the IP (3 h) was 8.9 mg/dL. It also gave a K (3 h) of 3.9 meq/L, an LDH (3 h) of 47.8 IU/L and a Na (3 h) of 142 meq/L. The PL (3 h) was 135.8 mg/dL, the RALB (3 h) was 2.4 g/dL and the TBIL (3 h) was 0.056 mg/dL. For the same molecule, the TC (3 h) was 78 mg/dL, the TG (3 h) was 29.4 mg/dL and the TP (3 h) was 5.2 g/dL. For the same molecule, the gamma-GTP (3 h) was 1.6 IU/L, the TERMINAL_BW (6 h) was 181.5 g and the APTT (6 h) was 15.7 s. It also gave a Bas (6 h) of 0%, an Eos (6 h) of 1% and a Fbg (6 h) of 265 mg/dL. The Hb (6 h) was 12.7 g/dL, the Ht (6 h) was 39.5% and the Lym (6 h) was 71.2%. It also gave an MCH (6 h) of 21.5 pg, an MCHC (6 h) of 32.1% and an MCV (6 h) of 67 fL. It also gave a Mono (6 h) of 4%, a Neu (6 h) of 23.4% and a PT (6 h) of 14.6 s. For the same molecule, the Plat (6 h) was 115.7 x10_4/uL, the RBC (6 h) was 589.4 x10_4/ul and the Ret (6 h) was 10.7%. It also gave a WBC (6 h) of 70.2 x10_2/uL, a KIDNEY_L (6 h) of 0.8 g and a KIDNEY_R (6 h) of 0.8 g. The KIDNEY_TOTAL (6 h) was 1.6 g, the LIVER (6 h) was 7.6 g and the A/G (6 h) was 0.9. For the same molecule, the ALP (6 h) was 1281.4 IU/L, the ALT (6 h) was 44 IU/L and the AST (6 h) was 77 IU/L. The BUN (6 h) was 9.2 mg/dL, the CRE (6 h) was 0.2 mg/dL and the Ca (6 h) was 11 mg/dL. The Cl (6 h) was 105.4 meq/L, the DBIL (6 h) was 0.006 mg/dL and the GLC (6 h) was 171 mg/dL. For the same molecule, the IP (6 h) was 9 mg/dL, the K (6 h) was 3.7 meq/L and the LDH (6 h) was 47.6 IU/L. The Na (6 h) was 142.2 meq/L, the PL (6 h) was 149 mg/dL and the RALB (6 h) was 2.5 g/dL. For the same molecule, the TBIL (6 h) was 0.066 mg/dL, the TC (6 h) was 84.4 mg/dL and the TG (6 h) was 24.4 mg/dL. For the same molecule, the TP (6 h) was 5.4 g/dL, the gamma-GTP (6 h) was 1.4 IU/L and the TERMINAL_BW (9 h) was 181 g. The APTT (9 h) was 15.4 s, the Bas (9 h) was 0% and the Eos (9 h) was 1%. For the same molecule, the Fbg (9 h) was 282.4 mg/dL, the Hb (9 h) was 12.4 g/dL and the Ht (9 h) was 38.2%. It also gave a Lym (9 h) of 64.4%, an MCH (9 h) of 21.8 pg and an MCHC (9 h) of 32.3%. The MCV (9 h) was 67.4 fL, the Mono (9 h) was 3% and the Neu (9 h) was 30.4%. It also gave a PT (9 h) of 14.5 s, a Plat (9 h) of 120.7 x10_4/uL and an RBC (9 h) of 567.2 x10_4/ul. For the same molecule, the Ret (9 h) was 10.7%, the WBC (9 h) was 63.1 x10_2/uL and the KIDNEY_L (9 h) was 0.8 g. It also gave a KIDNEY_R (9 h) of 0.8 g, a KIDNEY_TOTAL (9 h) of 1.7 g and an LIVER (9 h) of 7.5 g. For the same molecule, the A/G (9 h) was 0.9, the ALP (9 h) was 1242 IU/L and the ALT (9 h) was 39.2 IU/L. It also gave an AST (9 h) of 79 IU/L, a BUN (9 h) of 10.4 mg/dL and a CRE (9 h) of 0.1 mg/dL. The Ca (9 h) was 10.8 mg/dL, the Cl (9 h) was 103.8 meq/L and the DBIL (9 h) was 0.006 mg/dL. The GLC (9 h) was 196 mg/dL, the IP (9 h) was 10.6 mg/dL and the K (9 h) was 3.6 meq/L. For the same molecule, the LDH (9 h) was 69 IU/L, the Na (9 h) was 141 meq/L and the PL (9 h) was 135.2 mg/dL. It also gave an RALB (9 h) of 2.4 g/dL, a TBIL (9 h) of 0.062 mg/dL and a TC (9 h) of 78.8 mg/dL. The TG (9 h) was 23.2 mg/dL, the TP (9 h) was 5.2 g/dL and the gamma-GTP (9 h) was 1.4 IU/L. It also gave a TERMINAL_BW (24 h) of 167.8 g, an APTT (24 h) of 16.1 s and a Bas (24 h) of 0%. The Eos (24 h) was 0.5%, the Fbg (24 h) was 368.8 mg/dL and the Hb (24 h) was 14.1 g/dL. For the same molecule, the Ht (24 h) was 42.9%, the Lym (24 h) was 69% and the MCH (24 h) was 21.6 pg. It also gave an MCHC (24 h) of 32.6%, an MCV (24 h) of 66 fL and a Mono (24 h) of 3.2%. It also gave a Neu (24 h) of 26.5%, a PT (24 h) of 15.8 s and a Plat (24 h) of 112.2 x10_4/uL. For the same molecule, the RBC (24 h) was 651.8 x10_4/ul, the Ret (24 h) was 8.6% and the WBC (24 h) was 68.9 x10_2/uL. It also gave a KIDNEY_L (24 h) of 0.8 g, a KIDNEY_R (24 h) of 0.8 g and a KIDNEY_TOTAL (24 h) of 1.6 g. It also gave an LIVER (24 h) of 7 g, an A/G (24 h) of 0.9 and an ALP (24 h) of 1162.2 IU/L. It also gave an ALT (24 h) of 186 IU/L, an AST (24 h) of 88 IU/L and a BUN (24 h) of 15 mg/dL. The CRE (24 h) was 0.2 mg/dL, the Ca (24 h) was 10.6 mg/dL and the Cl (24 h) was 105.8 meq/L. For the same molecule, the DBIL (24 h) was 0.0125 mg/dL, the GLC (24 h) was 174.8 mg/dL and the IP (24 h) was 9.7 mg/dL. For the same molecule, the K (24 h) was 3.4 meq/L, the LDH (24 h) was 78.8 IU/L and the Na (24 h) was 142.8 meq/L. The PL (24 h) was 131.2 mg/dL, the RALB (24 h) was 2.4 g/dL and the TBIL (24 h) was 0.0825 mg/dL. For the same molecule, the TC (24 h) was 83.8 mg/dL, the TG (24 h) was 39.8 mg/dL and the TP (24 h) was 5.3 g/dL. The gamma-GTP (24 h) was 0.8 IU/L.
